Results published in ChEMBL document CHEMBL3414446, “Neoechinulin B and its analogues as potential entry inhibitors of influenza viruses, targeting viral hemagglutinin” (Eur J Med Chem, 2015).

Assays:
Influenza A virus [1] = experiment: Antiviral activity against OSV-resistant influenza A virus A/LiaoNing-ZhenXing/1109/2010 (H1N1) strain; format: functional, organism-based
Influenza A virus [2] = experiment: Antiviral activity against amantadine and ribavirin-resistant influenza A virus A/HuNan-huHui/1222/2010 (H3N2) strain; format: functional, organism-based

Compound	IC50 (Influenza A virus [1])	IC50 (Influenza A virus [2])
NC12CC3CC(CC(C3)C1)C2 [AMANTADINE]	0.82 µM	> 200 µM
C=CC(C)(C)c1[nH]c2ccccc2c1/C=c1\[nH]c(=O)c(=C)[nH]c1=O [NEOECHINULIN B]	16.9 µM	22.2 µM
CCOC(=O)C1=C[C@@H](OC(CC)CC)[C@H](NC(C)=O)[C@@H](N)C1 [OSELTAMIVIR]	> 200 µM	> 20.5 µM
NC(=O)c1ncn([C@@H]2O[C@H](CO)[C@@H](O)[C@H]2O)n1 [RIBAVIRIN]	1.05 µM	> 150 µM
